# In US10294236B2, “Compounds as rearranged during transfection (RET) inhibitors” (GLAXOSMITHKLINE INTELLECTUAL PROPERTY DEVELOPMENT LIMITED, priority 2014, dated 2019):
# Target: T1, Human RET kinase cytoplasmic domain (Homo sapiens, UniProt P07949)
# T1 construct: made in house
# T1 sequence (P07949 658-1114): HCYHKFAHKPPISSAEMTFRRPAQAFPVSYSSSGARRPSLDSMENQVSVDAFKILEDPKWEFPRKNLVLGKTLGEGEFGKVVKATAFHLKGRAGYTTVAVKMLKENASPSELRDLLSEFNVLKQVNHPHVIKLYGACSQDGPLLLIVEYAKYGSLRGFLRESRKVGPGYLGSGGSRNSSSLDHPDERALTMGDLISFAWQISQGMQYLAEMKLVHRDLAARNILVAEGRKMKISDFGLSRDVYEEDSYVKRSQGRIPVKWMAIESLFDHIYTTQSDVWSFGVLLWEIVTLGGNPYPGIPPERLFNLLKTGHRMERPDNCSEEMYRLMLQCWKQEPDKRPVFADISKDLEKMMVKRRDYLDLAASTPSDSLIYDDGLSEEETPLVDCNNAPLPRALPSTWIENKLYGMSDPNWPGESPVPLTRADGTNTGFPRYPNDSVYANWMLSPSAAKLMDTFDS
# Experiment: RET kinase enzymatic assay
# Type: biochemical
# Settings: not given
# In short: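 GST-RET, 0.2 nM in 2× enzyme mix (HEPES, CHAPS, BSA, DTT), preincubated with inhibitor 30 min at 23 °C. Reaction for 1 h at 23 °C after adding 2× substrate mix: 20 μM ATP, 20 mM MgCl2, 1 μM biotinylated peptide. Single wells per concentration; IC50 from sigmoidal dose-response fit.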
row,Compound,IC50
1,CCOc1cc(-c2ccc(NC(=O)Nc3cnc(OC4(C)COC4)c(C(F)(F)F)c3)c(F)c2)c[nH]c1=O [Example 148],< 100 nM
2,"CC1(Oc2ccc(NC(=O)Nc3ccc(-c4c[nH]c(=O)c5occc45)cc3F)cc2C(F)(F)F)COC1 [Example 1, 1-(2-Fluoro-4-(7-oxo-6,7-dihydrofuro[2,3-c]pyridin-4-yl)phenyl)-3-(4-((3-methyloxetan-3-yl)oxy)-3-(trifluoromethyl)phenyl)urea]",< 100 nM
3,"Cc1nc(-c2c[nH]c(=O)c(OCCO)c2)ncc1NC(=O)Nc1cc(C(F)(F)F)c(CN2CCN(CCO)CC2)cc1F [Example 173, 1-(2-Fluoro-4-((4-(2-hydroxyethyl)piperazin-1-yl)methyl)-5-(trifluoromethyl)phenyl)-3-(2-(5-(2-hydroxyethoxy)-6-oxo-1,6-dihydropyridin-3-yl)-4-methylpyrimidin-5-yl)urea]",< 100 nM
4,CCOc1cc(-c2ccc(NC(=O)Nc3ccc(C4(CO)CC4)c(C(F)(F)F)c3)c(F)c2)c[nH]c1=O [Example 77],< 100 nM
5,CCOc1cc(-c2ccc(NC(=O)Nc3ccc(OC4(C)COC4)c(C(F)(F)F)c3)c(C3CC3)n2)c[nH]c1=O [Example 104],< 100 nM

# The next lines start with the values.
row,IC50,Compound
1,< 100 nM,CCOc1cc(-c2ccc(NC(=O)Nc3ccc(C(C)(C)CO)c(C(F)(F)F)c3)c(F)c2)c[nH]c1=O [Example 120]
2,< 100 nM,CCOc1cc(-c2ccc(NC(=O)Nc3ccc(OC(C)(C)CF)c(C(F)(F)F)c3)c(F)c2)c[nH]c1=O [Example 139]
3,< 100 nM,"CCOc1cc(-c2ncc(NC(=O)Nc3cc(C(C)(C)C(F)(F)F)on3)c(C)n2)c[nH]c1=O [Example 15, 1-(2-(5-Ethoxy-6-oxo-1,6-dihydropyridin-3-yl)-4-methylpyrimidin-5-yl)-3-(5-(1,1,1-trifluoro-2-methylpropan-2-yl)isoxazol-3-yl)urea]"

# System: not listed separately
# Experiment: Physical stability of the crystalline form on exposure to humidity
# Type: physicochemical
# Settings: exposed to 75% RH for five days
# Method: A suspension of 1-(2-(4-ethoxy-6-oxo-1,6-dihydropyridin-3-yl)-4-methylpyrimidin-5-yl)-3-(5-(1,1,1-trifluoro-2-methylpropan-2-yl)isoxazol-3-yl)urea (493.5 mg) in 12.5 mL of acetone was stirred overnight while cycling the temperature between 40° C. and 5° C. Seeds of Compound A free base anhydrate were added at 5° C. The solids were isolated by vacuum filtration and dried overnight in a vacuum oven at 40° C. to give the title compound as a crystalline solid.
row,physical stability,Compound
1,physically stable,"CCOc1cc(=O)[nH]cc1-c1ncc(NC(=O)Nc2cc(C(C)(C)C(F)(F)F)on2)c(C)n1 [Compound A free base anhydrate, 1-(2-(4-Ethoxy-6-oxo-1,6-dihydropyridin-3-yl)-4-methylpyrimidin-5-yl)-3-(5-(1,1,1-trifluoro-2-methylpropan-2-yl)isoxazol-3-yl)urea]"
